Source: patent publication US20090270407A1, “FUNGICIDAL ISOXAZOLIDINES” (E. I. DU PONT DE NEMOURS AND COMPANY, priority 2008, published 2009)
Where two headings read alike, the source gives them in different places. Marks after values point to notes of the source that are not given here.

Legend:
Settings in all cases: 100 = 100 % disease control, 0 = no disease control relative to controls
Phytophthora infestans = assay type: in vivo
[1] = tested on: Puccinia recondita f. sp. tritici; assay: Test B: wheat leaf rust, preventive spray on wheat seedlings, visual disease rating
From the text: (§1) General protocol for preparing test suspensions for Tests A-I: The test compounds were first dissolved in acetone in an amount equal to 3% of the final volume and then suspended at the desired concentration (in ppm) in acetone and purified water (50/50 mix) containing 250 ppm of the surfactant Trem® 014 (polyhydric alcohol esters). The resulting test suspensions were then used in Tests A-I. Spraying a 200 ppm test suspension to the point of run-off on the test plants was the equivalent of a rate of 500 g/ha.
The test suspension was sprayed to the point of run-off on wheat seedlings. The following day the seedlings were inoculated with a spore suspension of Puccinia recondita f. sp. tritici (the causal agent of wheat leaf rust) and incubated in a saturated atmosphere at 20° C. for 24 h, and then moved to a growth chamber at 20° C. for 7 days, after which time visual disease ratings were made.
(§2) All results are for 200 ppm except where followed by “*” which indicates 40 ppm.

Botrytis cinerea = assay: Test E: tomato Botrytis, preventive spray on tomato seedlings, visual disease rating
From the text: as §1
The test suspension was sprayed to the point of run-off on tomato seedlings. The following day the seedlings were inoculated with a spore suspension of Botrytis cinerea (the causal agent of tomato Botrytis) and incubated in saturated atmosphere at 20° C. for 48 h, and then moved to a growth chamber at 24° C. for 3 additional days, after which time visual disease ratings were made.
as §2

[2] = tested on: Erysiphe graminis f. sp. tritici; assay: Test A: wheat powdery mildew, preventive spray on wheat seedlings, visual disease rating
Septoria tritici = assay: Test D: wheat leaf blotch, preventive spray on wheat seedlings, visual disease rating; assay type: in vivo
From the text: A dash (−) indicates no test results.

Septoria nodorum = assay: Test C: wheat glume blotch, preventive spray on wheat seedlings, visual disease rating
Alternaria solani = assay: Test F: tomato early blight, preventive spray on tomato seedlings, visual disease rating
Plasmopara viticola = assay: Test I: grape downy mildew, spray on grape seedlings after inoculation, visual disease rating
From the text: General protocol for preparing test suspensions for Tests A-I: The test compounds were first dissolved in acetone in an amount equal to 3% of the final volume and then suspended at the desired concentration (in ppm) in acetone and purified water (50/50 mix) containing 250 ppm of the surfactant Trem® 014 (polyhydric alcohol esters). The resulting test suspensions were then used in Tests A-I. Spraying a 200 ppm test suspension to the point of run-off on the test plants was the equivalent of a rate of 500 g/ha. (An asterisk “*” next to the rating value indicates a 40 ppm test suspension.)
Grape seedlings were inoculated with a spore suspension of Plasmopara viticola (the causal agent of grape downy mildew) and incubated in a saturated atmosphere at 20° C. for 24 h. After a short drying period, the test suspension was sprayed to the point of run-off on the grape seedlings and then moved to a growth chamber at 20° C. for 6 days, after which time the test units were placed back into a saturated atmosphere at 20° C. for 24 h. Upon removal, visual disease ratings were made.
as §2

CN1OC(C)(c2cccnc2)CC1c1ccc(Br)cc1 (racemic) [Compound 3]
Test H disease control rating (Phytophthora infestans; 200 ppm): 0%
Test B disease control rating ([1]; 200 ppm): 0%
Test E disease control rating (Botrytis cinerea; 200 ppm): 79%
Test A disease control rating ([2]; 200 ppm): 93%

Cc1ccc(-c2ccc(C3CC(C)(c4cccnc4)ON3C)cc2)cc1 (racemic) [Compound 14]
Test D disease control rating (Septoria tritici; 40 ppm (marked *)): 0* %
Test H disease control rating (Phytophthora infestans; 40 ppm (marked *)): 0* %
Test B disease control rating ([1]; 40 ppm (marked *)): 0* %
Test E disease control rating (Botrytis cinerea; 40 ppm (marked *)): 0* %
Test C disease control rating (Septoria nodorum; 40 ppm (marked *)): 0* %
Test A disease control rating ([2]; 40 ppm (marked *)): 91* %
Test F disease control rating (Alternaria solani; 40 ppm (marked *)): 0* %
Test I disease control rating (Plasmopara viticola; 40 ppm (marked *)): 0* %

CN1OC(C)(c2cccnc2)CC1c1ccc(I)cc1 (racemic) [Compound 15]
Test D disease control rating (Septoria tritici; 200 ppm): 98%
Test H disease control rating (Phytophthora infestans; 200 ppm): 0%
Test B disease control rating ([1]; 200 ppm): 0%
Test E disease control rating (Botrytis cinerea; 200 ppm): 98%
Test C disease control rating (Septoria nodorum; 200 ppm): 99%
Test A disease control rating ([2]; 200 ppm): 99%
Test F disease control rating (Alternaria solani; 200 ppm): 100%
Test I disease control rating (Plasmopara viticola; 200 ppm): 0%

CN1OC(C)(c2cccnc2)CC1c1ccc(I)cc1 (racemic) [Compound 16]
Test D disease control rating (Septoria tritici; 200 ppm): 96%
Test H disease control rating (Phytophthora infestans; 200 ppm): 0%
Test B disease control rating ([1]; 200 ppm): 0%
Test E disease control rating (Botrytis cinerea; 200 ppm): 56%
Test C disease control rating (Septoria nodorum; 200 ppm): 95%
Test A disease control rating ([2]; 200 ppm): 99%
Test F disease control rating (Alternaria solani; 200 ppm): 0%
Test I disease control rating (Plasmopara viticola; 200 ppm): 0%

CN1OC(C)(c2cccnc2)CC1c1ccc(-c2ccc(OC(F)(F)F)cc2)cc1 (racemic) [Compound 17]
Test D disease control rating (Septoria tritici; 40 ppm (marked *)): 30* %
Test H disease control rating (Phytophthora infestans; 40 ppm (marked *)): 0* %
Test B disease control rating ([1]; 40 ppm (marked *)): 0* %
Test E disease control rating (Botrytis cinerea; 40 ppm (marked *)): 94* %
Test C disease control rating (Septoria nodorum; 40 ppm (marked *)): 0* %
Test A disease control rating ([2]; 40 ppm (marked *)): 100* %
Test F disease control rating (Alternaria solani; 40 ppm (marked *)): 15* %
Test I disease control rating (Plasmopara viticola; 40 ppm (marked *)): 0* %

CN1OC(C)(c2cccnc2)CC1c1ccc(-n2cccn2)cc1 (racemic) [Compound 33]
Test D disease control rating (Septoria tritici; 40 ppm (marked *)): 80* %
Test H disease control rating (Phytophthora infestans; 40 ppm (marked *)): 0* %
Test B disease control rating ([1]; 40 ppm (marked *)): 0* %
Test E disease control rating (Botrytis cinerea; 40 ppm (marked *)): 39* %
Test C disease control rating (Septoria nodorum; 40 ppm (marked *)): 99* %
Test A disease control rating ([2]; 40 ppm (marked *)): 99* %
Test F disease control rating (Alternaria solani; 40 ppm (marked *)): 58* %
Test I disease control rating (Plasmopara viticola; 40 ppm (marked *)): 0* %

Cc1ccc(-c2ccc([C@H]3C[C@@](C)(c4cccnc4)ON3C)cc2)cc1 (relative stereo) [Compound 13, rel-3-[(3R,5S)-2,5-dimethyl-3-(4′-methyl[1,1′-biphenyl]-4-yl)-5-isoxazolidinyl]pyridine]
Test D disease control rating (Septoria tritici; 40 ppm (marked *)): 92* %
Test H disease control rating (Phytophthora infestans; 40 ppm (marked *)): 0* %
Test B disease control rating ([1]; 40 ppm (marked *)): 0* %
Test E disease control rating (Botrytis cinerea; 40 ppm (marked *)): 99* %
Test C disease control rating (Septoria nodorum; 40 ppm (marked *)): 0* %
Test A disease control rating ([2]; 40 ppm (marked *)): 99* %
Test F disease control rating (Alternaria solani; 40 ppm (marked *)): 0* %
Test I disease control rating (Plasmopara viticola; 40 ppm (marked *)): 0* %

CN1O[C@](C)(c2cccnc2)C[C@@H]1c1ccc(-n2ccc(C(F)(F)F)n2)cc1 (relative stereo) [Compound 35, rel-3-[(3R,5S)-2,5-dimethyl-3-[4-[3-(trifluoromethyl)-1H-pyrazol-1-yl]phenyl]-5-isoxazolidinyl]pyridine]
Test D disease control rating (Septoria tritici; 40 ppm (marked *)): 99* %
Test H disease control rating (Phytophthora infestans; 40 ppm (marked *)): 0* %
Test B disease control rating ([1]; 40 ppm (marked *)): 100* %
Test E disease control rating (Botrytis cinerea; 40 ppm (marked *)): 99* %
Test C disease control rating (Septoria nodorum; 40 ppm (marked *)): 100* %
Test A disease control rating ([2]; 40 ppm (marked *)): 100* %
Test F disease control rating (Alternaria solani; 40 ppm (marked *)): 98* %
Test I disease control rating (Plasmopara viticola; 40 ppm (marked *)): 0* %

CN1OC(C)(c2cccnc2)CC1c1ccccc1F (stereo not drawn) [Compound 79]
Test D disease control rating (Septoria tritici; 200 ppm): 7%
Test B disease control rating ([1]; 200 ppm): 27%
Test E disease control rating (Botrytis cinerea; 200 ppm): 0%
Test C disease control rating (Septoria nodorum; 200 ppm): 22%
Test A disease control rating ([2]; 200 ppm): 0%
Test F disease control rating (Alternaria solani; 200 ppm): 0%

CN1OC(C)(c2cccnc2)CC1c1ccc(F)c(F)c1 (stereo not drawn) [Compound 81]
Test D disease control rating (Septoria tritici; 200 ppm): 15%
Test B disease control rating ([1]; 200 ppm): 0%
Test E disease control rating (Botrytis cinerea; 200 ppm): 78%
Test C disease control rating (Septoria nodorum; 200 ppm): 0%
Test A disease control rating ([2]; 200 ppm): 56%
Test F disease control rating (Alternaria solani; 200 ppm): 0%

CN1OC(C)(c2cccnc2)CC1c1ccc(F)c(F)c1 (stereo not drawn) [Compound 82]
Test D disease control rating (Septoria tritici; 200 ppm): 40%
Test B disease control rating ([1]; 200 ppm): 18%
Test E disease control rating (Botrytis cinerea; 200 ppm): 0%
Test C disease control rating (Septoria nodorum; 200 ppm): 0%
Test A disease control rating ([2]; 200 ppm): 0%
Test F disease control rating (Alternaria solani; 200 ppm): 0%

CN1OC(C)(c2cccnc2)CC1c1ccc(Br)cc1Br (stereo not drawn) [Compound 83]
Test D disease control rating (Septoria tritici; 200 ppm): 91%
Test B disease control rating ([1]; 200 ppm): 0%
Test E disease control rating (Botrytis cinerea; 200 ppm): 82%
Test C disease control rating (Septoria nodorum; 200 ppm): 81%
Test A disease control rating ([2]; 200 ppm): 98%
Test F disease control rating (Alternaria solani; 200 ppm): 56%

CN1OC(C)(c2cccnc2)CC1c1ccc(Br)cc1Br (stereo not drawn) [Compound 84]
Test D disease control rating (Septoria tritici; 200 ppm): 52%
Test B disease control rating ([1]; 200 ppm): 27%
Test E disease control rating (Botrytis cinerea; 200 ppm): 43%
Test C disease control rating (Septoria nodorum; 200 ppm): 60%
Test A disease control rating ([2]; 200 ppm): 94%
Test F disease control rating (Alternaria solani; 200 ppm): 0%

COc1cc(Br)ccc1C1CC(C)(c2cccnc2)ON1C (stereo not drawn) [Compound 85]
Test D disease control rating (Septoria tritici; 200 ppm): 89%
Test B disease control rating ([1]; 200 ppm): 0%
Test E disease control rating (Botrytis cinerea; 200 ppm): 0%
Test C disease control rating (Septoria nodorum; 200 ppm): 64%
Test A disease control rating ([2]; 200 ppm): 90%
Test F disease control rating (Alternaria solani; 200 ppm): 92%

COc1cc(Br)ccc1C1CC(C)(c2cccnc2)ON1C (stereo not drawn) [Compound 86]
Test D disease control rating (Septoria tritici; 200 ppm): 76%
Test B disease control rating ([1]; 200 ppm): 9%
Test E disease control rating (Botrytis cinerea; 200 ppm): 0%
Test C disease control rating (Septoria nodorum; 200 ppm): 0%
Test A disease control rating ([2]; 200 ppm): 91%
Test F disease control rating (Alternaria solani; 200 ppm): 0%

CN1OC(C)(c2cccnc2)CC1c1cccc2c1OC(F)(F)O2 (stereo not drawn) [Compound 91]
Test D disease control rating (Septoria tritici; 200 ppm): 0%
Test B disease control rating ([1]; 200 ppm): 0%
Test E disease control rating (Botrytis cinerea; 200 ppm): 0%
Test C disease control rating (Septoria nodorum; 200 ppm): 0%
Test A disease control rating ([2]; 200 ppm): 0%
Test F disease control rating (Alternaria solani; 200 ppm): 0%

CN1OC(C)(c2cccnc2)CC1c1ccccc1Cl (stereo not drawn) [Compound 92]
Test D disease control rating (Septoria tritici; 200 ppm): 22%
Test B disease control rating ([1]; 200 ppm): 0%
Test E disease control rating (Botrytis cinerea; 200 ppm): 0%
Test C disease control rating (Septoria nodorum; 200 ppm): 0%
Test A disease control rating ([2]; 200 ppm): 0%
Test F disease control rating (Alternaria solani; 200 ppm): 0%

CN1OC(C)(c2cccnc2)CC1c1ccccc1Cl (stereo not drawn) [Compound 93]
Test D disease control rating (Septoria tritici; 200 ppm): 3%
Test B disease control rating ([1]; 200 ppm): 0%
Test E disease control rating (Botrytis cinerea; 200 ppm): 0%
Test C disease control rating (Septoria nodorum; 200 ppm): 0%
Test A disease control rating ([2]; 200 ppm): 0%
Test F disease control rating (Alternaria solani; 200 ppm): 0%

CN1OC(C)(c2cccnc2)CC1c1cccc(F)c1 (stereo not drawn) [Compound 94]
Test D disease control rating (Septoria tritici; 200 ppm): 4%
Test B disease control rating ([1]; 200 ppm): 0%
Test E disease control rating (Botrytis cinerea; 200 ppm): 0%
Test C disease control rating (Septoria nodorum; 200 ppm): 0%
Test A disease control rating ([2]; 200 ppm): 84%
Test F disease control rating (Alternaria solani; 200 ppm): 0%

CN1OC(C)(c2cccnc2)CC1c1ccc(Br)cc1F (stereo not drawn) [Compound 96]
Test D disease control rating (Septoria tritici; 200 ppm): 77%
Test B disease control rating ([1]; 200 ppm): 0%
Test E disease control rating (Botrytis cinerea; 200 ppm): 0%
Test C disease control rating (Septoria nodorum; 200 ppm): 78%
Test A disease control rating ([2]; 200 ppm): 48%
Test F disease control rating (Alternaria solani; 200 ppm): 0%

CN1OC(C)(c2cccnc2)CC1c1ccc(Br)c(F)c1 (stereo not drawn) [Compound 101]
Test D disease control rating (Septoria tritici; 200 ppm): 68%
Test B disease control rating ([1]; 200 ppm): 0%
Test E disease control rating (Botrytis cinerea; 200 ppm): 100%
Test C disease control rating (Septoria nodorum; 200 ppm): 86%
Test A disease control rating ([2]; 200 ppm): 99%
Test F disease control rating (Alternaria solani; 200 ppm): 99%
